Results as given in patent publication US8058475B2, “Substituted cyclohexylmethyl compounds” (Gruenenthal GmbH, priority 2005, dated 2011).
Read-outs that look alike come from different tables or passages of the source.

Target: human μ-opiate receptor (Homo sapiens, UniProt P35372)
Assay: Affinity for the human μ-opiate receptor ([3H]-naloxone displacement, SPA, CHO-K1 membrane preparation)
Type: binding
Conditions: for Ki: read-out: μ-Opioid receptor, Ki; for inhibition at 1 µM: read-out: μ-Opioid receptor, % inhibition [1 μM]
[1] = 1 μM test substance, inhibition of specific [3H]-naloxone binding

Chain of human μ-opiate receptor (P35372 whole entry): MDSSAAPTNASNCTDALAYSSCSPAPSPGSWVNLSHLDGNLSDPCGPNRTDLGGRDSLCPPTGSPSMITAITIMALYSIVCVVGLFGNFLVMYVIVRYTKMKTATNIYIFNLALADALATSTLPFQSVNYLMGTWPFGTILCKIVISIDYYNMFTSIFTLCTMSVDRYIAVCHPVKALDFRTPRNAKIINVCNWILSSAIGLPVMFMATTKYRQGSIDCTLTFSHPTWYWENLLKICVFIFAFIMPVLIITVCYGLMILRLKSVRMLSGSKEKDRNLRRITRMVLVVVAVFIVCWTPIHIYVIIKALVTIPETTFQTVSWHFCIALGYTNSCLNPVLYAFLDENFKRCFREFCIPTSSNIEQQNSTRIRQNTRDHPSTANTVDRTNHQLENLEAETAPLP

Compound | μ-Opioid receptor, % inhibition [1 μM] [%] | Ki [nM] | inhibition at 1 µM [%] | inhibition at 1 µM [1] [%] | μ-Opioid receptor, % inhibition [1 μM] [1] [%]
CN(C)C(c1ccccc1)C1CCC(CNC(=O)c2ccc(F)c(F)c2)CC1 (single isomer, unassigned) [compound 357, N-[4-(dimethylamino-phenyl-methyl)-cyclohexylmethyl]-3,4-difluoro-benzamide] | 86 | 60 | – | – | –
CN(C)C(c1ccccc1)C1CCC(CCNC(=O)c2cccs2)CC1 (stereo not drawn) [compound 452, thiophene-2-carboxylic acid {2-[4-(dimethylamino-phenyl-methyl)-cyclohexyl]-ethyl}-amide] | – | 12 | 99 | – | –
COc1ccc(C(=O)NC2CCC(C(c3cccs3)N(C)C)CC2)c(OC)c1 (stereo not drawn) [compound 202, N-[4-(dimethylamino-thiophen-2-yl-methyl)-cyclohexyl]-2,4-dimethoxy-benzamide] | – | 31 | 94 | – | –
CN(C)C(c1cccs1)C1CCC(CCNC(=O)c2ccc(F)cc2)CC1 (stereo not drawn) [compound 426, N-{2-[4-(dimethylamino-thiophen-2-yl-methyl)-cyclohexyl]-ethyl}-4-fluoro-benzamide] | – | 5.8 | 99 | – | –
Cc1cccc(C(=O)NCC2CCC(C(c3ccccc3)N(C)C)CC2)c1 (stereo not drawn) [compound 362, N-[4-(dimethylamino-phenyl-methyl)-cyclohexylmethyl]-3-methyl-benzamide] | – | 60 | 85 | – | –
Cc1ccc(C2(O)CCC(C(c3ccc(Cl)cc3)N(C)C)CC2)cc1 (stereo not drawn) [compound 165, 4-[(4-chloro-phenyl)-dimethylamino-methyl]-1-p-tolyl-cyclohexanol] | – | – | – | 52 | –
CCCC(=O)N(CCc1c[nH]c2ccccc12)C1CCC(C(c2ccccc2)N(C)C)CC1 (stereo not drawn) [compound 181, N-(2-(1H-indol-3-yl)ethyl)-N-(4-((dimethylamino)(phenyl)methyl)-cyclohexyl)butyramide] | – | 3.9 | 95 | – | –
CN(C)C(c1ccc(Cl)cc1)C1CCC(CNC(=O)c2csc3ccccc23)CC1 (single isomer, unassigned) [compound 372, benzo[b]thiophene-3-carboxylic acid {4-[(4-chloro-phenyl)-dimethylamino-methyl]-cyclohexylmethyl}-amide] | 84 | 33 | – | – | –
CN(C)C(c1cccc(F)c1)C1CCC(NC(=O)c2ccc(F)c(Cl)c2)CC1 (stereo not drawn) [compound 269, 3-chloro-N-{4-[dimethylamino-(3-fluoro-phenyl)-methyl]-cyclohexyl}-4-fluoro-benzamide] | – | 47 | 75 | – | –
COC(=O)C(Cc1c[nH]c2ccccc12)NC1CCC(C(c2ccccc2)N(C)C)CC1 (single isomer, unassigned) [compound 175, methyl 2-(4-((dimethylamino)(phenyl)methyl)cyclohexylamino)-3-(1H-indol-3-yl)propanoate] | – | 11 | – | – | 86
CN(C)C(c1cccc(F)c1)C1CCC(O)(c2cc(Cl)cc(Cl)c2)CC1 (stereo not drawn) [compound 155, 1-(3,5-dichloro-phenyl)-4-[dimethylamino-(3-fluoro-phenyl)-methyl]-cyclohexanol] | – | – | – | 77 | –
COc1ccc(C(=O)NCCC2CCC(C(c3ccccc3)N(C)C)CC2)c(OC)c1 (stereo not drawn) [compound 478, N-{2-[4-(dimethylamino-phenyl-methyl)-cyclohexyl]-ethyl}-2,4-dimethoxy-benzamide] | – | 27 | 95 | – | –
CN(C)C(c1ccc(F)cc1)C1CCC(NC(=O)c2ccc(Cl)c(Cl)c2)CC1 (stereo not drawn) [compound 270, 3,4-dichloro-N-{4-[dimethylamino-(4-fluoro-phenyl)-methyl]-cyclohexyl}-benzamide] | – | 190 | 75 | – | –
CCCc1ccc(C(=O)NCCC2CCC(C(c3cccs3)N(C)C)CC2)cc1 (stereo not drawn) [compound 443, N-{2-[4-(dimethylamino-thiophen-2-yl-methyl)-cyclohexyl]-ethyl}-4-propyl-benzamide] | – | 40 | 96 | – | –
CN(C)C(c1ccccc1)C1CCC(CCNC(=O)C2(c3ccc(Cl)cc3)CCCC2)CC1 (stereo not drawn) [compound 449, 1-(4-chloro-phenyl)-cyclopentane-carboxylic acid {2-[4-(dimethylamino-phenyl-methyl)-cyclohexyl]-ethyl}-amide] | – | 36 | 88 | – | –
CN(C)C(c1cccs1)C1CCC(NC(=O)c2csc(-c3ccc4c(c3)CCO4)n2)CC1 (stereo not drawn) [compound 239, 2-(2,3-dihydro-benzofuran-5-yl)-thiazole-4-carboxylic acid [4-(dimethylamino-thiophen-2-yl-methyl)-cyclohexyl]-amide] | – | 80 | 82 | – | –
CN(C)C(c1ccccc1)C1CCC(CNC(=O)C2(c3ccc(Cl)cc3)CCCC2)CC1 (stereo not drawn) [compound 339, 1-(4-chloro-phenyl)-cyclopentane-carboxylic acid [4-(dimethylamino-phenyl-methyl)-cyclohexylmethyl]-amide] | 91 | 25 | – | – | –
CN(C)C(c1ccccc1)C1CCC(NC(=O)CC(C)(C)C)CC1 (single isomer, unassigned) [compound 246, N-[4-(dimethylamino-phenyl-methyl)-cyclohexyl]-3,3-dimethyl-butyramide] | 82 | 39 | – | – | –

Compound | μ-Opioid receptor, % inhibition [1 μM] [%] | Ki [nM] | inhibition at 1 µM [%] | inhibition at 1 µM [1] [%] | μ-Opioid receptor, % inhibition [1 μM] [1] [%]
CN(C)C(c1ccccc1)C1CCC(CCNC(=O)c2cncc(Br)c2)CC1 (stereo not drawn) [compound 473, 5-bromo-N-{2-[4-(dimethylamino-phenyl-methyl)-cyclohexyl]-ethyl}-nicotinamide] | – | 18 | 91 | – | –
CN(C)C(c1ccc(Cl)cc1)C1CCC(CNC(=O)c2ccccc2Cl)CC1 (stereo not drawn) [compound 354, 2-chloro-N-{4-[(4-chloro-phenyl)-dimethylamino-methyl]-cyclohexylmethyl}-benzamide] | – | 53 | 86 | – | –
CN(C)C(c1ccccc1)C1CCC(NC(=O)C2CCCC2)CC1 (stereo not drawn) [compound 288, cyclopentanecarboxylic acid [4-(dimethylamino-phenyl-methyl)-cyclohexyl]-amide] | – | 160 | 70 | – | –
CN(C)C(c1cccc(F)c1)C1CCC(O)(CCc2ccccc2)CC1 (stereo not drawn) [compound 153, 4-[dimethylamino-(3-fluoro-phenyl)-methyl]-1-phenethyl-cyclohexanol] | – | – | – | 87 | –
CN(C)C(c1ccccc1)C1CCC(NC(=O)COc2ccc(Cl)cc2)CC1 (stereo not drawn) [compound 284, 2-(4-chloro-phenoxy)-N-[4-(dimethylamino-phenyl-methyl)-cyclohexyl]-acetamide] | – | 63 | 72 | – | –
CN(C)C(c1ccccc1)C1CCC(NC(=O)c2csc(-c3ccccc3)n2)CC1 (stereo not drawn) [compound 237, 2-phenyl-thiazole-4-carboxylic acid [4-(dimethylamino-phenyl-methyl)-cyclohexyl]-amide] | – | 48 | 83 | – | –
CN(C)C(c1ccccc1)C1CCC(CNC(=O)c2cccnc2Cl)CC1 (stereo not drawn) [compound 355, 2-chloro-N-[4-(dimethylamino-phenyl-methyl)-cyclohexylmethyl]-nicotinamide] | – | 120 | 86 | – | –
CCn1nc(C)c(Br)c1C(=O)NCC1CCC(C(c2cccs2)N(C)C)CC1 (stereo not drawn) [compound 375, 4-bromo-2-ethyl-5-methyl-2H-pyrazole-3-carboxylic acid [4-(dimethylamino-thiophen-2-yl-methyl)-cyclohexylmethyl]-amide] | – | – | 84 | – | –
CN(C)C(c1ccc(F)cc1)C1CCC(CCNC(=O)c2ccccc2F)CC1 (stereo not drawn) [compound 427, N-(2-{4-[dimethylamino-(4-fluoro-phenyl)-methyl]-cyclohexyl}-ethyl)-2-fluoro-benzamide] | – | 40 | 84 | – | –
CN(C)C(c1cccc(F)c1)C1CCC(CNC(=O)Cc2ccccc2)CC1 (single isomer, unassigned) [compound 348, N-{4-[dimethylamino-(3-fluoro-phenyl)-methyl]-cyclohexylmethyl}-2-phenyl-acetamide] | 89 | 30 | – | – | –
CN(C)C(c1cccc(F)c1)C1CCC(NC(=O)CC(C)(C)C)CC1 (stereo not drawn) [compound 251, N-{4-[dimethylamino-(3-fluoro-phenyl)-methyl]-cyclohexyl}-3,3-dimethyl-butyramide] | – | 91 | 81 | – | –
Cc1cc(C(=O)NC2CCC(C(c3ccccc3)N(C)C)CC2)c(C)o1 (stereo not drawn) [compound 279, 2,5-dimethyl-furan-3-carboxylic acid [4-(dimethylamino-phenyl-methyl)-cyclohexyl]-amide] | – | 140 | 74 | – | –
CN(C)C(c1cccc(F)c1)C1CCC(CNC(=O)C2(c3ccc(Cl)cc3)CCCC2)CC1 (stereo not drawn) [compound 327, 1-(4-chloro-phenyl)-cyclopentane-carboxylic acid {4-[dimethylamino-(3-fluoro-phenyl)-methyl]-cyclohexylmethyl}-amide] | – | 63 | 94 | – | –
CN(C)C(c1cccs1)C1CCC(NC(=O)c2cccc(C#N)c2)CC1 (stereo not drawn) [compound 186, 3-cyano-N-[4-(dimethylamino-thiophen-2-yl-methyl)-cyclohexyl]-benzamide] | – | 18 | 100 | – | –
Cc1nc(-c2ccc3c(c2)CCO3)sc1C(=O)NC1CCC(C(c2cccs2)N(C)C)CC1 (stereo not drawn) [compound 283, 2-(2,3-dihydro-benzofuran-5-yl)-4-methyl-thiazole-5-carboxylic acid [4-(dimethylamino-thiophen-2-yl-methyl)-cyclohexyl]-amide] | – | 150 | 72 | – | –
Cc1cc(C(=O)NC2CCC(C(c3cccs3)N(C)C)CC2)n(C(C)(C)C)n1 (stereo not drawn) [compound 201, 2-tert-butyl-5-methyl-2H-pyrazole-3-carboxylic acid [4-(dimethylamino-thiophen-2-yl-methyl)-cyclohexyl]-amide] | – | 16 | 94 | – | –
Cc1oc(-c2ccccc2)cc1C(=O)NCC1CCC(C(c2ccccc2)N(C)C)CC1 (stereo not drawn) [compound 345, 2-methyl-5-phenyl-furan-3-carboxylic acid [4-(dimethylamino-phenyl-methyl)-cyclohexylmethyl]-amide] | – | 13 | 90 | – | –
